Assay results taken from patent US20190083521A1, “COMBINATION THERAPY FOR TREATING CANCER” (Epizyme, Inc., priority 2014, published 2019).

Assays:
RS4-11 (MLL-AF4) cells = experiment: Example 7 retest: EPZ-5676 pre-treatment, second compound 72 h, Cell Titer Glo, growth inhibition; assay type: cell-based; set-up: GI100: unit not given here; conditions: RS4-11 (MLL-AF4), Ras mutation status: None known, second compound, 72 h; for GI50: Homo sapiens
Protocol: (§1) Cells were then treated with a second compound for 72 hours. After this time, plates were developed for endpoint analysis using Cell Titer Glo to measure ATP content, which is used as an indicator of cell viability.
(§2) “N/D” means the GI100 of the second compound could not be determined for both conditions and “-” means not tested.
(§3) Growth Inhibition (GI) as a measure of cell viability: The cell viability of vehicle was measured at the time of dosing the second agent (T0) and after seventy-two hours (T72). […] A GI 200% represents complete death of all cells in the culture well. Compounds reaching an activity plateau of GI 200% are considered cytotoxic. GI is calculated by applying the following test and equation: […]

ML-2 (MLL-AF6) cells = experiment: as above; assay type: cell-based; set-up: GI100: unit not given here; conditions: ML-2 (MLL-AF6), KRAS A146T (het); for GI50 / GI100: second compound, 72 h
Protocol: as §1, §2, §3

SKM-1 (non-MLLr) cells = experiment: as above; assay type: cell-based, human; set-up: GI100: unit not given here; conditions: SKM-1 (non-MLLr); for Combination result with EPZ-5676, Retest: 300 nM EPZ-5676 pre-treatment vs DMSO; for Result (combination with EPZ-5676) / GI50 / GI100: KRAS K117N (homo); for GI50 / GI100: second compound, 72 h
Protocol: as §1, §2, §3

MOLM-13 (MLL-AF9) cells = experiment: as above; assay type: cell-based, human; set-up: GI100: unit not given here; conditions: MOLM-13 (MLL-AF9); for GI50: Homo sapiens; for GI50 / GI100: second compound, 72 h
Protocol: as §1, §2, §3

THP-1 (MLL-AF9) cells = experiment: as above; assay type: cell-based; set-up: GI100: unit not given here; conditions: NRAS G12D
Protocol: as §1, with “Cells were split using EPZ-5676 or DMSO containing growth media and further incubated for an additional 3-day pre-treatment time. Cells were finally seeded in growth media containing EPZ-5676 or DMSO in 96-well plates. Cells” for “Cells”
as §2
as §3, with “(T72). A GI reading of 0% represents no growth inhibition—cells treated with test compound as compared to T72 vehicle signals were measured.” for “(T72).”

[1] = system: OCI-AML-4 (MLL-ENL) cells; experiment: as above; assay type: cell-based; conditions: OCI-AML-4 (MLL-ENL); for Combination result with EPZ-5676, Retest: 300 nM EPZ-5676 pre-treatment vs DMSO
Protocol: as §1, §2, §3

MOLM-13 cells = experiment: Example 6 combination screen: 300 nM EPZ-5676 pre-treatment, second compound 72 h, ATPLite, IC50 shift; assay type: cell-based, human; conditions: 300 nM EPZ-5676 pre-treatment (4 + 3 days) vs DMSO, then 2nd compound 72 h, IC50 shift of 2nd compound
Protocol: as §1, with “equilibrated in incubators for 24 hours before treatment with a second compound. Treated assay plates were incubated” for “treated”, “ATPLite” for “Cell Titer Glo”
(§4) “N/D” means that IC50 of the second compound could not be determined for both conditions.

MV4-11 (MLL-AF4) cells = experiment: Combination proliferation assay with Compound A2 (CellTiter-Glo, Chou-Talalay CI); assay type: cell-based, human; conditions: MV4-11 (MLL-AF4); 7 Day Cotreatment Model
Protocol: The acute myelogenous leukemia cell lines MV4-11 (MLL-AF4) and MOLM-13 (MLL-AF9) were obtained from American Type Culture Collection (ATCC; Rockville, Md.) and Deutsche Sammlung von Mikroorganismen and Zellkulturen (DSMZ; Braunschweig, Germany) respectively.
(§5) Studies were performed using MLL-rearranged cell lines in vitro to evaluate the anti-proliferative effect of a combination of two agents together on cell growth. Initial proliferation studies were performed to determine the IC50 of a given compound in each cell line. The cell counts were measured by ATP quantitation using the Promega Cell Titer Glo kit and luminescence values corresponded to the amount of ATP in a given well.
Compounds were evaluated for synergy in the co-treatment phase by testing the compounds in a concentration range which was bracketed around their IC50 values. The compounds were plated to a 96 well plate in a matrix format (FIG. 3) which includes increasing concentrations of each drug in the combination in a constant ratio, in addition to the effect of each compound alone in the study. Cells were seeded and grown in the log-linear phase for 3 or 7 days in the co-treatment phase. Minimum inhibition (DMSO alone) controls were used in each plate to calculate fraction affected (Fa) of a test well. DMSO concentration was kept at 0.1% v/v.
The drug combination analysis was performed utilizing the Chou-Talalay method Synergy was determined using the software package Calcusyn by Biosoft. The combination index (CI) is a quantitative term used to describe the level of synergy or antagonism in a given test system. A combination index less than one indicates synergy, and a CI greater than one indicates antagonism. Further, strong synergism is achieved when the CI value falls below 0.3.
The HP-D300 digital dispenser (Tecan) was used to dispense compounds in a combinatorial matrix. […] Cell viability was measured via ATP content using CellTiter-Glo® (Promega).
Viability was determined using CellTiter-Glo® (Promega).
as §5, with “Proliferation studies” for “Studies”, “MOLM-13, MV4-11 and SKM-1” for “MLL-rearranged”, “cancer cell killing” for “anti-proliferative”, “IC50 values” for “IC50”, “correspond” for “corresponded”
These studies were performed to evaluate both the combinatorial effect of compounds on cell killing and the durability of the effect by washing out one of the agents.
Compounds evaluated for synergy in the co-treatment phase were tested in a range which was bracketed around the IC50's. The compounds were plated to a 96 well plate in a matrix format which includes increasing concentrations of each drug in the combination in a constant ratio, in addition to the effect of each compound alone in the study. Cells were seeded and grown in the log-linear phase for 3 or 7 days in the cotreatment phase. Maximum and minimum inhibition (DMSO alone) controls were used in each plate to calculate fraction affected (Fa) of a test well. DMSO concentration was kept at 0.1% v/v. The drug combination analysis was performed utilizing the Chou-Talalay method. Synergy was determined using the software package Calcusyn by Biosoft. The combination index (CI) is the term used to describe the level of synergy or antagonism in a given test system. A combination index less than one indicates synergy, and a CI greater than one indicates antagonism.
The drug combination analysis was performed using the Chou-Talalay method. Graphs representing values of combination index (CI) versus Fractional effect (Fa) known as Fa-CI plots were generated and synergy was evaluated. Drug synergy was statistically defined by CI values less than 1, antagonism by CI>1 and additive effect by CI equal to 1.

SKM-1 cells = experiment: Example 6 combination screen: 300 nM EPZ-5676 pre-treatment, second compound 72 h, ATPLite, IC50 shift; assay type: cell-based, human; conditions: SKM-1 cells; 300 nM EPZ-5676 pre-treatment (4 + 3 days) vs DMSO, then 2nd compound 72 h; ATPLite; IC50 shift of 2nd compound
Protocol: as §1, with “equilibrated in incubators for 24 hours before treatment with a second compound. Treated assay plates were incubated” for “treated”, “ATPLite” for “Cell Titer Glo”
as §4

[2] = Ras mutation status: None known
[3] = NRAS Q61R (het), second compound, 72 h

SMILES	GI50 (RS4-11 (MLL-AF4) cells) [nM]	GI100 (RS4-11 (MLL-AF4) cells)	GI50 (ML-2 (MLL-AF6) cells) [nM]	GI100 (ML-2 (MLL-AF6) cells)	Combination result with EPZ-5676, Retest (SKM-1 (non-MLLr) cells)	Result (combination with EPZ-5676) (SKM-1 (non-MLLr) cells)	GI50 (SKM-1 (non-MLLr) cells) [nM]	GI100 (SKM-1 (non-MLLr) cells)	GI50 (MOLM-13 (MLL-AF9) cells; [2]) [nM]	GI100 (MOLM-13 (MLL-AF9) cells; [2])	GI50 (THP-1 (MLL-AF9) cells) [nM]	Combination result with EPZ-5676, Retest [1]	Result (combination with EPZ-5676) ([1]; NRAS Q61R (het))	GI50 [1, 3] [nM]	Summary of Combination Studies: MOLM-13 (MOLM-13 cells)	Summary of Combination Studies: SKM-1 (SKM-1 cells)	further results
CC(C)Nc1cc(-c2c[nH]c(C(=O)N[C@H](CO)c3cccc(Cl)c3)c2)c(Cl)cn1 [Ulixertinib]	> 10000	>10	630	2.711	Synergy (considered synergistic if the GI100 (Growth inhibition 100) value of the second compound decreased by 2-fold or more when EPZ-5676 was added as compared to the DMSO control)	Synergy (considered synergistic if the GI100 (Growth inhibition 100) value of the second compound decreased by 2-fold or more when EPZ-5676 was added as compared to the DMSO control)	440	1.500	1670	3.96	810	Synergy (considered synergistic if the GI100 (Growth inhibition 100) value of the second compound decreased by 2-fold or more when EPZ-5676 was added as compared to the DMSO control)	Synergy (considered synergistic if the GI100 (Growth inhibition 100) value of the second compound decreased by 2-fold or more when EPZ-5676 was added as compared to the DMSO control)	2100	–	–	Result (combination with EPZ-5676) (ML-2 (MLL-AF6) cells): Synergy (considered synergistic if the GI100 (Growth inhibition 100) value of the second compound decreased by 2-fold or more when EPZ-5676 was added as compared to the DMSO control); Combination result with EPZ-5676, Retest (MOLM-13 (MLL-AF9) cells; 150 nM EPZ-5676 pre-treatment vs DMSO): Synergy (considered synergistic if the GI100 (Growth inhibition 100) value of the second compound decreased by 2-fold or more when EPZ-5676 was added as compared to the DMSO control); Result (combination with EPZ-5676) (MOLM-13 (MLL-AF9) cells; [2]): Synergy (considered synergistic if the GI100 (Growth inhibition 100) value of the second compound decreased by 2-fold or more when EPZ-5676 was added as compared to the DMSO control)
Cn1nccc1Nc1nccc(-c2ccn([C@H](CO)c3ccc(Cl)c(F)c3)c(=O)c2)n1 [GDC0994]	1300	2.505	590	2.55	Synergy (considered synergistic if the GI100 (Growth inhibition 100) value of the second compound decreased by 2-fold or more when EPZ-5676 was added as compared to the DMSO control)	Synergy (considered synergistic if the GI100 (Growth inhibition 100) value of the second compound decreased by 2-fold or more when EPZ-5676 was added as compared to the DMSO control)	270	1.84	3080	4.26	2850	Synergy (considered synergistic if the GI100 (Growth inhibition 100) value of the second compound decreased by 2-fold or more when EPZ-5676 was added as compared to the DMSO control)	Synergy (considered synergistic if the GI100 (Growth inhibition 100) value of the second compound decreased by 2-fold or more when EPZ-5676 was added as compared to the DMSO control)	904	–	–	GI100 (THP-1 (MLL-AF9) cells): >10; GI100 [1, 3]: 3.068
O=C(Nc1ccccc1-c1cn2c(CN3CCNCC3)csc2n1)c1cnc2ccccc2n1 [SRT-1720]	–	–	–	–	–	–	–	–	–	–	–	–	–	–	Synergy (considered synergistic if the IC50 value of the second compound decreased by 2-fold or more when EPZ-5676 was added as compared to the DMSO control)	–	Combination effect with Compound A2 (Table 4) (MV4-11 (MLL-AF4) cells): Synergy (Drug synergy was statistically defined by CI values less than 1)
O=C(/C=C/c1ccc(O)c(O)c1)OCCc1ccccc1 [CAPE]	–	–	–	–	–	–	–	–	–	–	–	–	–	–	Synergy (considered synergistic if the IC50 value of the second compound decreased by 2-fold or more when EPZ-5676 was added as compared to the DMSO control)	Synergy (considered synergistic if the IC50 value of the second compound decreased by 2-fold or more when EPZ-5676 was added as compared to the DMSO control)	–
Cc1sc2c(c1C)C(c1ccc(Cl)cc1)=N[C@@H](CC(N)=O)c1nnc(C)n1-2 [CPI-203]	–	–	–	–	–	–	–	–	–	–	–	–	–	–	Synergy (considered synergistic if the IC50 value of the second compound decreased by 2-fold or more when EPZ-5676 was added as compared to the DMSO control)	Synergy (considered synergistic if the IC50 value of the second compound decreased by 2-fold or more when EPZ-5676 was added as compared to the DMSO control)	–
